From US20220055989A1, “CONDENSED PYRROLES AS NOVEL BROMODOMAIN INHIBITORS” (ALBERT LUDWING UNIVERSITÄT FREIBURG, priority 2018, published 2022)

Experiments:
[1] = target: T1, BRD4(1) (Homo sapiens, UniProt O60885); experiment: Bromodomain assay % Ctrl determination BRD4(1); details: lower numbers indicate a stronger binding
T1 construct: BRD4-BD1 was expressed and purified as described previously; made in house
Protocol: (§1) Compounds that bind the bromodomain prevent its binding to the immobilized ligand thus reducing the amount of protein captured. […] Hits are identified by measuring the amount of bromodomain captured in test versus control samples. Bromodomain assays for % Ctrl determination: T7 phage strains displaying bromodomains were grown in parallel in 24-well blocks in an E. coli host derived from the BL21 strain. E. coli were grown to log-phase and infected with T7 phage from a frozen stock (multiplicity of infection=0.4) and incubated with shaking at 32° C. until lysis (90-150 minutes). The lysates were centrifuged (5,000×g) and filtered (0.2 μm) to remove cell debris. […] The liganded beads were blocked with excess biotin and washed with blocking buffer (SeaBlock (Pierce), 1% BSA, 0.05% Tween 20, 1 mM DTT) to remove unbound ligand and to reduce non-specific phage binding. […] Test compounds were prepared as 1000× stocks in 100% DMSO and subsequently diluted 1:25 in monoethylene glycol (MEG). The compounds were then diluted directly into the assays such that the final concentrations of DMSO and MEG were 0.1% and 2.4%, respectively. All reactions were performed in polypropylene 384-well plates in a final volume of 0.02 ml. […] The bromodomain concentration in the eluates was measured by qPCR. […]

[2] = system: TRIM33(PHD, Bromo); experiment: Bromodomain assay % Ctrl determination TRIM33(PHD, Bromo); details: lower numbers indicate a stronger binding
Protocol: as §1

[3] = target: T2, TAF1(2) (Homo sapiens, UniProt P21675); experiment: Bromodomain assay % Ctrl determination TAF1(2); details: lower numbers indicate a stronger binding
T2 construct: FALZ, PBRM1-BD2, BPRM1-BDS, TAF1-BD2, TAF1L-BD2; host or cells: T7 phage grown in E. coli host derived from BL21
T2 sequence (P21675 1519-1628 limits assumed): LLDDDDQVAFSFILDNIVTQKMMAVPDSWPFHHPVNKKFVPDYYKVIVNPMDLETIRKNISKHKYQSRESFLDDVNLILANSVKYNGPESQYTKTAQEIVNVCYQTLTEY
Protocol: as §1

[4] = target: T3, CECR2 (Homo sapiens, UniProt Q9BXF3); experiment: Bromodomain assay % Ctrl determination CECR2; details: lower numbers indicate a stronger binding
T3 construct: T7 phage strains displaying bromodomains were grown; host or cells: T7 phage in E. coli derived from BL21
T3 sequence (Q9BXF3 434-538 limits assumed): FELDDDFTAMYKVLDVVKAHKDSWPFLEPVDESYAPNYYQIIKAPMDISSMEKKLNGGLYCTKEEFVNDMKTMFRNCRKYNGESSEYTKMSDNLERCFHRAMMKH
Protocol: as §1

[5] = target: T4, BRD2(1) (Homo sapiens, UniProt P25440); experiment: Bromodomain assay % Ctrl determination BRD2(1); details: lower numbers indicate a stronger binding
T4 construct: T7 phage strains displaying bromodomains were grown in parallel; made in house; host or cells: T7 phage grown in an E. coli host derived from the BL21 strain
T4 sequence (P25440 74-180 limits assumed): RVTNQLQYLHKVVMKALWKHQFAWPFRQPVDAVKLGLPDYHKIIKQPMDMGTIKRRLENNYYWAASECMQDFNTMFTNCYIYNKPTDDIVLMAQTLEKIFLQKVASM
Protocol: as §1

[6] = target: T5, BAZ2B (Homo sapiens, UniProt Q9UIF8); experiment: Bromodomain assay % Ctrl determination BAZ2B; details: lower numbers indicate a stronger binding
T5 construct: T7 phage strains displaying bromodomains were grown in parallel; made in house; host or cells: T7 phage grown in an E. coli host derived from the BL21 strain
T5 sequence (Q9UIF8 2060-2164 limits assumed): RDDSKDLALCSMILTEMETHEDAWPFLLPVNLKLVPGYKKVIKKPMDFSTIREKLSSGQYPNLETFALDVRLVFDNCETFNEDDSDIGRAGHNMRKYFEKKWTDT
Protocol: as §1

[7] = target: T6, PCAF (Homo sapiens, UniProt Q92831); experiment: Bromodomain assay % Ctrl determination PCAF; details: lower numbers indicate a stronger binding
T6 construct: T7 phage strains displaying bromodomains were grown in parallel; host or cells: T7 phage grown in E. coli host derived from BL21
T6 sequence (Q92831 723-827 limits assumed): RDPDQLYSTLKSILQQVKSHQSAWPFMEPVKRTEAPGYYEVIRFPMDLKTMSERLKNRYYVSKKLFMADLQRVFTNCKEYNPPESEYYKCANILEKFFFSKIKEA
Protocol: as §1

[8] = target: T7, ATAD2A (Homo sapiens, UniProt Q6PL18); experiment: Bromodomain assay % Ctrl determination ATAD2A; details: lower numbers indicate a stronger binding
T7 construct: T7 phage strains displaying bromodomains were grown in parallel; made in house; host or cells: T7 phage grown in an E. coli host derived from the BL21 strain
T7 sequence (Q6PL18 980-1092 limits assumed): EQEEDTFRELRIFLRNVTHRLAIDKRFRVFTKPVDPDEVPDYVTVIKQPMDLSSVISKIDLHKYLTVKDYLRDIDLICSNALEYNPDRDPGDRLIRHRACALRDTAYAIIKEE
Protocol: as §1

[9] = target: T8, SMARCA4 (Homo sapiens, UniProt P51532); experiment: Bromodomain assay % Ctrl determination SMARCA4; details: lower numbers indicate a stronger binding
T8 construct: T7 phage strains displaying bromodomains were grown in parallel; host or cells: T7 phage grown in E. coli host derived from BL21
T8 sequence (P51532 1453-1564 limits assumed): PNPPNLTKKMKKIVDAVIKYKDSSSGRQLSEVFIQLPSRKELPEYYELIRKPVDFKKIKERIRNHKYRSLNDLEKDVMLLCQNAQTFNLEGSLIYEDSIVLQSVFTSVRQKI
Protocol: as §1

[10] = target: T9, CREBBP (Homo sapiens, UniProt Q92793); experiment: Bromodomain assay % Ctrl determination CREBBP; details: lower numbers indicate a stronger binding
T9 construct: T7 phage strains displaying bromodomains were grown; host or cells: T7 phage in E. coli derived from BL21
T9 sequence (Q92793 1085-1192 limits assumed): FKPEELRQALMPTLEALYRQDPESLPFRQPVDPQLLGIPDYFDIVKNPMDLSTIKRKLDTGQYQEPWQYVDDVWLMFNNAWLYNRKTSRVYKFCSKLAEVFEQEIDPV
Protocol: as §1

[11] = target: T10, BRD1 (Homo sapiens, UniProt O95696); experiment: BROMOscan Kd determination BRD1; assay type: binding
T10 construct: T7 phage strains displaying bromodomains were grown in parallel; made in house; host or cells: T7 phage grown in an E. coli host derived from the BL21 strain
T10 sequence (O95696 562-666 limits assumed): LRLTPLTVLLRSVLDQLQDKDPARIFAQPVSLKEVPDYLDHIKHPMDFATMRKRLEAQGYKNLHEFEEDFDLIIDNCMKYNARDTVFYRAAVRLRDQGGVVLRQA
Protocol: (§2) Bromodomain profiling was carried out on the basis of BROMOscan™. This platform accounted for the indirect determination of the dissociation constants between 19 bromodomains and the compound of formula (13), by binding competition against a reference immobilized ligand. Compounds that bind the bromodomain prevent its binding to the immobilized ligand thus reducing the amount of protein captured. […] Hits are identified by measuring the amount of bromodomain captured in test versus control samples. Bromodomain assays for Kd determination: T7 phage strains displaying bromodomains were grown in parallel in 24-well blocks in an E. coli host derived from the BL21 strain. E. coli were grown to log-phase and infected with T7 phage from a frozen stock (multiplicity of infection=0.4) and incubated with shaking at 32° C. until lysis (90-150 minutes). The lysates were centrifuged (5,000×g) and filtered (0.2 μm) to remove cell debris. […] Kds were determined using an 11-point 3-fold compound dilution series with one DMSO control point. […] The bromodomain concentration in the eluates was measured by qPCR. […] Most Kds were determined using a compound top concentration=10,000 nM. […] Binding Constants (Kds): Binding constants (Kds) were calculated with a standard dose-response curve using the Hill equation: The Hill Slope was set to −1. […]

[12] = target: T11, SMARCA2 (Homo sapiens, UniProt P51531); experiment: BROMOscan Kd determination SMARCA2; assay type: binding
T11 construct: T7 phage strains displaying bromodomains were grown in parallel; host or cells: T7 phage grown in E. coli host derived from BL21
T11 sequence (P51531 1378-1506 limits assumed): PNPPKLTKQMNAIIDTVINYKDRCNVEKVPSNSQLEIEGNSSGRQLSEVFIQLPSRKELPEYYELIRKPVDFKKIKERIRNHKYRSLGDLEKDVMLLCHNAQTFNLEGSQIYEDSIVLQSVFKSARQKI
Protocol: as §2

[13] = target: T7, ATAD2A; experiment: BROMOscan Kd determination ATAD2A; assay type: binding
Protocol: as §2

[14] = target: T12, ATAD2B (Homo sapiens, UniProt Q9ULI0); experiment: BROMOscan Kd determination ATAD2B; assay type: binding
T12 construct: T7 phage strains displaying bromodomains were grown in parallel; made in house; host or cells: T7 phage grown in an E. coli host derived from the BL21 strain
T12 sequence (Q9ULI0 951-1066 limits assumed): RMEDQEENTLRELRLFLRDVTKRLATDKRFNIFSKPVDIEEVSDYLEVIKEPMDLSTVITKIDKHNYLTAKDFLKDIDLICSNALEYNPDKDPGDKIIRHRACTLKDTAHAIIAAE
Protocol: as §2

[15] = target: T13, BRD3(1, 2) (Homo sapiens, UniProt Q15059); experiment: BROMOscan Kd determination BRD3(1, 2); assay type: binding
T13 construct: T7 phage strains displaying bromodomains were grown in parallel; made in house; host or cells: T7 phage grown in an E. coli host derived from the BL21 strain
T13 sequence (Q15059 24-416 limits assumed): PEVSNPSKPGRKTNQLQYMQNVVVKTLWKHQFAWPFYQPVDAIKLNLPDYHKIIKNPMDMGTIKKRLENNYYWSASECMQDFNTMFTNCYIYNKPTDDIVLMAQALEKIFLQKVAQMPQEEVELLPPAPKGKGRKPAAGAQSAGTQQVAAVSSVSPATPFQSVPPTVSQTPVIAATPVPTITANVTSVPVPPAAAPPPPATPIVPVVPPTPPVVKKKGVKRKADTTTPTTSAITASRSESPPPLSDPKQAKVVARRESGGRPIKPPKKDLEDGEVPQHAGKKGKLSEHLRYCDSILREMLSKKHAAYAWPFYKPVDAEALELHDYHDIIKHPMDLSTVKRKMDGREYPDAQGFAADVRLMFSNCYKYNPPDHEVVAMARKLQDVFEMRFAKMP
Protocol: as §2

[16] = target: T14, PBRM1(2) (Homo sapiens, UniProt Q86U86); experiment: BROMOscan Kd determination PBRM1(2); assay type: binding
T14 construct: FALZ, PBRM1-BD2, BPRM1-BDS, TAF1-BD2, TAF1L-BD2; host or cells: T7 phage grown in E. coli host derived from BL21
T14 sequence (Q86U86 177-287 limits assumed): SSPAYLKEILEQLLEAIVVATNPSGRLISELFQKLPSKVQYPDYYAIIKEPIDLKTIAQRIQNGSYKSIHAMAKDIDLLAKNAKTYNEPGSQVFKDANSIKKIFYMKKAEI
Protocol: as §2

[17] = target: T15, BRDT(1, 2) (Homo sapiens, UniProt Q58F21); experiment: BROMOscan Kd determination BRDT(1, 2); assay type: binding
T15 construct: T7 phage strains displaying bromodomains were grown; host or cells: T7 phage in E. coli derived from BL21
Protocol: as §2

[18] = target: T16, GCN5L2 (Homo sapiens, UniProt Q92830); experiment: BROMOscan Kd determination GCN5L2; assay type: binding
T16 construct: T7 phage strains displaying bromodomains were grown in parallel; host or cells: T7 phage grown in E. coli host derived from BL21
T16 sequence (Q92830 728-832 limits assumed): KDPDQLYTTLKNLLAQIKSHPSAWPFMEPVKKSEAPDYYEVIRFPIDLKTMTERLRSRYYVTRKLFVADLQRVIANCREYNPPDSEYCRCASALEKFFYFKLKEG
Protocol: as §2

% Ctrl @ 10 000 nM BRD4(1) [1] | % Ctrl @ 10 000 nM TAF1(2) [3] | % Ctrl @ 10 000 nM CECR2 [4] | % Ctrl @ 10 000 nM BRD2(1) [5] | % Ctrl @ 10 000 nM BAZ2B [6] | % Ctrl @ 10 000 nM PCAF [7] | % Ctrl @ 10 000 nM ATAD2A [8] | % Ctrl @ 10 000 nM SMARCA4 [9] | % Ctrl @ 10 000 nM CREBBP [10] | Kd [11] | Kd [12] | Kd [13] | Kd [14] | Kd [15] | Kd [16] | Kd [17] | Kd [18] | Structure (SMILES) | % Ctrl @ 10 000 nM TRIM33(PHD, Bromo) [2]
0 % Ctrl | 7.4 % Ctrl | 1.3 % Ctrl | 0 % Ctrl | 6.8 % Ctrl | 20 % Ctrl | 94 % Ctrl | 71 % Ctrl | 4.7 % Ctrl |  |  |  |  |  |  |  |  | COc1ccc(S(=O)(=O)N2CCOCC2)cc1NC(=O)c1[nH]c(C)c2c1CCCCC2=O [Compound 13, N-(2-methoxy-5-(morpholinosulfonyl)phenyl)-3-methyl-4-oxo-2,4,5,6,7,8-hexahydrocyclohepta[c]pyrrole-1-carboxamide] | 60 % Ctrl
 |  |  |  |  |  |  |  |  | 3.1 µM | > 10 µM | > 10 µM | > 10 µM | 100 nM | 4.2 µM | 420 nM | > 10 µM | Cc1[nH]c(-c2cc(N)ccc2Cl)c2c1C(=O)CCCC2 [Compound 23] | 
